For assay [1], the target named is mitochondrial RNA-polymerase (POLRMT) (Mus musculus, UniProt Q8BKF1). The assay can be described thus: Homogeneous TR-FRET assay for mitochondrial transcription activity. The settings on record: homogeneous TR-FRET assay according to Example 4; activity class. The class given is biochemical. Summed up: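 Mouse POLRMT, TFAM and TFB2M with linearized pUC-LSP template in 10 mM Tris-HCl pH 7.5, 10 mM MgCl2, 40 mM NaCl; compounds at 10 μM or serial dilution, 10 min RT preincubation. Started with 500 μM each […], 2 h RT; 407 bp RNA product detected by hybridized Eu-cryptate/ATTO647N probe TR-FRET (ex 340, em 665 nm).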

The test system of assay [2] is mitochondrial transcription (7S RNA) in HeLa cells. In words: Quantitative real time-PCR assay of inhibition of mitochondrial transcription (cellular qPCR assay IMT). The settings on record: Homo sapiens, 4 h compound incubation, qRT-PCR according to Example 5, activity class. Type of assay: cell-based. How it is done: Quantitative real-time PCR (qRT-PCR), based on the TagMan™ (Thermo Fisher Scientific, Waltham Mass.) technology, was carried out essentially as described in (Heid et al., 1996). HeLa cells were plated one day before compound treatment in RPMI medium supplemented with 10% Fetal Calf Serum and 2 mM L-glutamine. Cells were incubated with dilution series of compounds or vehicle (DMSO) for 4 h, prior to harvest and extraction of the RNA using the RNeasy Mini Kit (Qiagen, Hilden D), according to the manufacturer's instructions. RNA concentrations were measured spectroscopically, using a NanoDrop-2000 (Thermo Fisher Scientific, Waltham Mass.) and normalized prior to cDNA synthesis, using a ‘High-Capacity cDNA Reverse Transcription Kit’ (Thermo Fisher Scientific, Waltham Mass.). qRT-PCR was carried out using the ‘TaqMan Fast Advance Master Mix’ (Thermo Fisher Scientific, Waltham Mass.) on a 7500 Fast Real-Time PCR machine (Applied Biosystems, Foster City Calif.)
For these measurements, three genes were used to compare the effect of the scrutinized compounds in relation to their concentration. The POLRMT-gene was used to detect potential influences on nuclear transcription. Mitochondrial transcription in vivo was monitored by measurements 7S RNA. The TBP (TATA-box binding protein) gene was employed as the control (housekeeping gene) during qRT-PCR. The short-lived mitochondrial 7S RNA, which is not post-transcriptionally stabilized, allowed us to monitor rapid changes in mitochondrial transcription activity following compound addition. Biological triplicates were analyzed using the comparative CT Method (ΔΔCt) method (Bubner and Baldwin, 2004) and reported as Rq % values (Rq=Relative quantification=2-ΔΔCt).
Background: Real-time PCR tracks product formation cycle by cycle.

Some results are limits rather than exact numbers.

mitochondrial RNA-polymerase (POLRMT), sequence (Q8BKF1 42-1207): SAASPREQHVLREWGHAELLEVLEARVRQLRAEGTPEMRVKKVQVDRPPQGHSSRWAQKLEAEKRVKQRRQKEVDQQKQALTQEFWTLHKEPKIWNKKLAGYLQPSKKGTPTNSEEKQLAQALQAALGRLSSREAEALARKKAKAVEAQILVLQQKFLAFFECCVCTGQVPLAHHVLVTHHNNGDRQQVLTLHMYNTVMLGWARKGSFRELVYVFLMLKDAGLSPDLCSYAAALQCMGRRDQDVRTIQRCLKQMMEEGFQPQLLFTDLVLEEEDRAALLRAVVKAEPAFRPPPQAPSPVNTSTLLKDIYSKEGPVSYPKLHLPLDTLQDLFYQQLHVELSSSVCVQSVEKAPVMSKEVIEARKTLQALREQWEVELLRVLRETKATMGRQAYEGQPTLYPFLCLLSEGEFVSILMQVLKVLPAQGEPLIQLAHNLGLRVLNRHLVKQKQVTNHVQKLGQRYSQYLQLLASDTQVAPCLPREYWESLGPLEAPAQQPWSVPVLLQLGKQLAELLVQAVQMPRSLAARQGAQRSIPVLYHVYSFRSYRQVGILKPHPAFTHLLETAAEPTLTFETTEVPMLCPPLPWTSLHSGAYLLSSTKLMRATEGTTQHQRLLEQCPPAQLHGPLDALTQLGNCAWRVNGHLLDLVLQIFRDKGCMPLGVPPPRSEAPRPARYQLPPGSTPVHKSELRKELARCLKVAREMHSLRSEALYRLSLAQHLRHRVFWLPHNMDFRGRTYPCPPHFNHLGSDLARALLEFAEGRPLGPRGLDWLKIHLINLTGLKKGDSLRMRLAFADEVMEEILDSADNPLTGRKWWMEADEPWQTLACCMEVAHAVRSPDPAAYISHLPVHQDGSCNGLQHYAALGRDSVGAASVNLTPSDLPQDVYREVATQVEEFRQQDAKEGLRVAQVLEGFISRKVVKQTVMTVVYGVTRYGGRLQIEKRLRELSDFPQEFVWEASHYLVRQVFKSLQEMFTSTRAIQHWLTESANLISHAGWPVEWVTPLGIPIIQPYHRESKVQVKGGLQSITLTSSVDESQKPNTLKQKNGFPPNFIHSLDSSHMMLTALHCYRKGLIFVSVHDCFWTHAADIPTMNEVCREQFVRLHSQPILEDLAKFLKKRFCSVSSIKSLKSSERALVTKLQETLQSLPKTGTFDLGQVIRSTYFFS

As a reminder, the IC50 is the concentration needed to halve the response being measured. A lower IC50 goes with higher potency. On to `CC(C)OC(=O)OCOC(=O)[C@H]1CCCN(C(=O)[C@@H](C)Oc2ccc3c(-c4ccc(F)cc4Cl)cc(=O)oc3c2)C1` [Compound 121, (S)-((isopropoxycarbonyl)oxy)methyl 1-((R)-2-((4-(2-chloro-4-fluorophenyl)-2-oxo-2H-chromen-7-yl)oxy)propanoyl)piperidine-3-carboxylate], for which the IC50 in assay [1] is 20 to 100 nM; in assay [2] it was below 10 nM.
On the same counts, the results for `C[C@@H](Oc1ccc2c(-c3ccc(F)cc3Cl)cc(=O)oc2c1)C(=O)N1CCN(C)C(C(=O)O)C1` (mixture of isomers) [Compound 161, 1-methyl-4-[rac-(2R)-2-[4-(2-chloro-4-fluoro-phenyl)-2-oxo-chromen-7-yl]oxypropanoyl]piperazine-2-carboxylic acid] are 100 to 1000 nM and 500 to 5000 nM.
As to `Cc1ccsc1-c1cc(=O)oc2cc(O[C@H](C)C(=O)N(C)C)ccc12` [Compound 179, (2R)-N,N-dimethyl-2-[4-(3-methyl-2-thienyl)-2-oxo-chromen-7-yl]oxy-propanamide], the IC50 in assay [1] was 100 to 1000 nM; in assay [2], 10 to 50 nM.
On the same counts, the results for `Cc1ccsc1-c1cc(=O)oc2cc(O[C@H](C)C(=O)N3CCCCC3)ccc12` [Compound 177, 7-[(1R)-1-methyl-2-oxo-2-(1-piperidyl)ethoxy]-4-(3-methyl-2-thienyl)chromen-2-one] are 20 to 100 nM and below 10 nM.
Regarding `CC(Oc1ccc2c(-c3ccc(F)cc3Cl)cc(=O)oc2c1)C(=O)N1CCCC(C)(C(=O)O)C1` (centres unmarked) [Compound 37, 1-[2-[4-(2-chloro-4-fluoro-phenyl)-2-oxo-chromen-7-yl]oxypropanoyl]-3-methyl-piperidine-3-carboxylic acid], the values for the IC50 in assay [1] and in assay [2] were below 20 nM and below 10 nM, respectively.
As for `CCCCCCCOC(=O)C[C@H]1CCCN(C(=O)[C@@H](C)Oc2ccc3c(-c4ccc(F)cc4Cl)cc(=O)oc3c2)C1` [Compound 126, heptyl 2-[(3R)-1-[(2R)-2-[4-(2-chloro-4-fluoro-phenyl)-2-oxo-chromen-7-yl]oxypropanoyl]-3-piperidyl]acetate], the IC50 was 100 to 1000 nM in assay [1] and below 10 nM in assay [2].
Regarding `Cc1ccsc1-c1cc(=O)oc2cc(O[C@H](C)C(=O)N3CCC[C@H](C(=O)O)C3)ccc12` [Compound 174, (3S)-1-[(2R)-2-[4-(3-methyl-2-thienyl)-2-oxo-chromen-7-yl]oxypropanoyl]piperidine-3-carboxylic acid], the IC50 is 20 to 100 nM in assay [1] and below 10 nM in assay [2].
On the same counts, the results for `Cc1ccccc1-c1cc(=O)oc2cc(OC(C)C(=O)N3CCC[C@@H](C(=O)N(C)C)C3)ccc12` (stereo partly drawn) [Compound 78, (3R)-N,N-dimethyl-1-[2-[4-(o-tolyl)-2-oxo-chromen-7-yl]oxypropanoyl]piperidine-3-carboxamide] are 20 to 100 nM and below 10 nM.
On the same counts, the results for `Cc1ccccc1-c1cc(=O)oc2cc(OC(C)C(=O)N3CCC[C@H](C(=O)N(C)C)C3)ccc12` (stereo partly drawn) [Compound 84, (3S)-N,N-dimethyl-1-[2-[4-(o-tolyl)-2-oxo-chromen-7-yl]oxypropanoyl]piperidine-3-carboxamide] are 20 to 100 nM and 10 to 50 nM.
On the same counts, the results for `CC(Oc1ccc2c(-c3ccccc3Cl)cc(=O)oc2c1)C(=O)N(C)C` (centres unmarked) [Compound 93, 2-[4-(2-chlorophenyl)-2-oxo-chromen-7-yl]oxy-N,N-dimethyl-propanamide] are 20 to 100 nM and below 10 nM.
Take `CC(C)(Oc1ccc2c(-c3ccccc3Cl)cc(=O)oc2c1)C(=O)N1CCC[C@H](C(=O)O)C1` [Compound 116, (3S)-1-[2-[4-(2-chlorophenyl)-2-oxo-chromen-7-yl]oxy-2-methyl-propanoyl]piperidine-3-carboxylic acid]: the IC50 in assay [1] fell in the range of 100 to 1000 nM; in assay [2], 500 to 5000 nM.
On to `CNC(=O)C1CCCN(C(=O)C(C)Oc2ccc3c(-c4ccccc4C)cc(=O)oc3c2)C1` (centres unmarked) [Compound 21, N-methyl-1-[2-[4-(o-tolyl)-2-oxo-chromen-7-yl]oxypropanoyl]piperidine-3-carboxamide], for which the results for the IC50 in assay [1] and in assay [2] were below 20 nM and below 10 nM, respectively.
Taken in the same sequence, the figures for `CC(Oc1ccc2c(-c3ccccc3Cl)cc(=O)oc2c1)C(=O)N1CCCC(CC(=O)O)C1` (centres unmarked) [Compound 66, 2-[1-[2-[4-(2-chlorophenyl)-2-oxo-chromen-7-yl]oxypropanoyl]-3-piperidyl]acetic acid] were 20 to 100 nM and below 10 nM.
Taken in the same sequence, the figures for `C[C@@H](Oc1ccc2c(-c3ccc(F)cc3Cl)cc(=O)oc2c1)C(=O)Nc1cccc(C(=O)O)c1` [Compound 139, 3-[[(2R)-2-[4-(2-chloro-4-fluoro-phenyl)-2-oxo-chromen-7-yl]oxypropanoyl]amino]benzoic acid] were below 20 nM and 50 to 500 nM.
On the same counts, the results for `CCOC(=O)C[C@H]1CCCN(C(=O)[C@@H](C)Oc2ccc3c(-c4sccc4C)cc(=O)oc3c2)C1` [Compound 180, ethyl 2-[(3R)-1-[(2R)-2-[4-(3-methyl-2-thienyl)-2-oxo-chromen-7-yl]oxypropanoyl]-3-piperidyl]acetate] are 20 to 100 nM and below 10 nM.
Consider `C[C@@H](Oc1ccc2c(-c3ccc(F)cc3Cl)cc(=O)oc2c1)C(=O)N1CC[C@H](CC(=O)O)C1` [Compound 145, 2-[(3R)-1-[(2R)-2-[4-(2-chloro-4-fluoro-phenyl)-2-oxo-chromen-7-yl]oxypropanoyl]pyrrolidin-3-yl]acetic acid], for which the IC50 in assay [1] is 20 to 100 nM; in assay [2], below 10 nM.
On the same counts, the results for `C=CC(=O)N1CCN(C(=O)[C@@H](C)Oc2ccc3c(-c4ccc(F)cc4Cl)cc(=O)oc3c2)CC1` [Compound 164, 4-(2-chloro-4-fluoro-phenyl)-7-[(1R)-1-methyl-2-oxo-2-(4-prop-2-enoylpiperazin-1-yl)ethoxy]chromen-2-one] are below 20 nM and below 10 nM.
In the case of `CCOC(=O)[C@H]1CCCN(C(=O)[C@@H](C)Oc2ccc3c(-c4ccc(F)cc4Cl)cc(=O)oc3c2)C1` [Compound 111, ethyl (3S)-1-[(2R)-2-[4-(2-chloro-4-fluoro-phenyl)-2-oxo-chromen-7-yl]oxypropanoyl] piperidine-3-carboxylate], the IC50 lay within 20 to 100 nM in assay [1] and 50 to 500 nM in assay [2].
On the same counts, the results for `CCNC(=O)C(C)Oc1ccc2c(-c3ccccc3C)cc(=O)oc2c1` (centres unmarked) [Compound 85, N-ethyl-2-[4-(o-tolyl)-2-oxo-chromen-7-yl]oxy-propanamide] are 20 to 100 nM and 10 to 50 nM.
On the same counts, the results for `C[C@@H](Oc1ccc2c(-c3ccc(F)cc3Cl)cc(=O)oc2c1)C(=O)N1CC[C@@H](CC(=O)O)C1` [Compound 147, 2-[(3S)-1-[(2R)-2-[4-(2-chloro-4-fluoro-phenyl)-2-oxo-chromen-7-yl]oxypropanoyl]pyrrolidin-3-yl]acetic acid] are below 20 nM and 10 to 50 nM.
On the same counts, the results for `CNC(=O)C1CCCN(C(=O)C(C)Oc2ccc3c(-c4ccccc4Cl)cc(=O)oc3c2)C1` (centres unmarked) [Compound 15, 1-[2-[4-(2-chlorophenyl)-2-oxo-chromen-7-yl]oxypropanoyl]-N-methyl-piperidine-3-carboxamide] are below 20 nM and below 10 nM.
For the molecule `C=CC(=O)N[C@H]1CCCN(C(=O)[C@@H](C)Oc2ccc3c(-c4ccc(F)cc4Cl)cc(=O)oc3c2)C1` [Compound 165, N-[(3S)-1-[(2R)-2-[4-(2-chloro-4-fluoro-phenyl)-2-oxo-chromen-7-yl]oxypropanoyl]-3-piperidyl]prop-2-enamide], the IC50 in assay [1] was below 20 nM; in assay [2], below 10 nM.
On the same counts, the results for `C[C@@H](Oc1ccc2c(-c3ccc(F)cc3Cl)cc(=O)oc2c1)C(=O)N1CC[C@H](C(=O)O)C1` [Compound 159, (3S)-1-[(2R)-2-[4-(2-chloro-4-fluoro-phenyl)-2-oxo-chromen-7-yl]oxypropanoyl]pyrrolidine-3-carboxylic acid] are 20 to 100 nM and 500 to 5000 nM.
On the same counts, the results for `Cc1ccccc1-c1cc(=O)oc2cc(OC(C)(C)C(=O)NC(C)C)ccc12` [Compound 115, N-isopropyl-2-methyl-2-[4-(o-tolyl)-2-oxo-chromen-7-yl]oxy-propanamide] are 100 to 1000 nM and 10 to 50 nM.
On the same counts, the results for `COC(=O)[C@H]1CN(C(=O)[C@@H](C)Oc2ccc3c(-c4ccc(F)cc4Cl)cc(=O)oc3c2)CCN1` [Compound 136, methyl (2R)-4-[(2R)-2-[4-(2-chloro-4-fluoro-phenyl)-2-oxo-chromen-7-yl]oxypropanoyl]piperazine-2-carboxylate] are 20 to 100 nM and 10 to 50 nM.

The values are drawn from patent publication US11111238B2, “Coumarin derivatives, processes for their preparation and uses thereof for the treatment of cancer” (Lead Discovery Center GmbH, priority 2017, dated 2021).
